{"source": "patent US20180291335A1", "about": "“MODIFIED POLYNUCLEOTIDES FOR ALTERING CELL PHENOTYPE” (ModernaTX, Inc., priority 2012, published 2018)", "molecules": {"B1": {"name": "mCherry: control mCherry mRNA (SEQ ID NO: 410, Cap1) fully modified with 5-methylcytosine and pseudouridine (nucleic acid)", "chain": "GGGAAAUAAGAGAGAAAAGAAGAGUAAGAAGAAAUAUAAGAGCCACCAUGGUAUCCAAGGGGGAGGAGGACAACAUGGCGAUCAUCAAGGAGUUCAUGCGAUUCAAGGUGCACAUGGAAGGUUCGGUCAACGGACACGAAUUUGAAAUCGAAGGAGAGGGUGAAGGAAGGCCCUAUGAAGGGACACAGACCGCGAAACUCAAGGUCACGAAAGGGGGACCACUUCCUUUCGCCUGGGACAUUCUUUCGCCCCAGUUUAUGUACGGGUCCAAAGCAUAUGUGAAGCAUCCCGCCGAUAUUCCUGACUAUCUGAAACUCAGCUUUCCCGAGGGAUUCAAGUGGGAGCGGGUCAUGAACUUUGAGGACGGGGGUGUAGUCACCGUAACCCAAGACUCAAGCCUCCAAGACGGCGAGUUCAUCUACAAGGUCAAACUGCGGGGGACUAACUUUCCGUCGGAUGGGCCGGUGAUGCAGAAGAAAACGAUGGGAUGGGAAGCGUCAUCGGAGAGGAUGUACCCAGAAGAUGGUGCAUUGAAGGGGGAGAUCAAGCAGAGACUGAAGUUGAAAGAUGGGGGACAUUAUGAUGCCGAGGUGAAAACGACAUACAAAGCGAAAAAGCCGGUGCAGCUUCCCGGAGCGUAUAAUGUGAAUAUCAAGUUGGAUAUUACUUCACACAAUGAGGACUACACAAUUGUCGAACAGUACGAACGCGCUGAGGGUAGACACUCGACGGGAGGCAUGGACGAGUUGUACAAAUGAUAAGCUGCCUUCUGCGGGGCUUGCCUUCUGGCCAUGCCCUUCUUCUCUCCCUUGCACCUGUACCUCUUGGUCUUUGAAUAAAGCCUGAGUAGGAAG", "modifications": "Cap1; 5mC/pseudoU modified; Description of Artificial Sequence: Synthetic Transcript Sequence"}, "B2": {"name": "α-thiocytidine: G-CSF mRNA (SEQ ID NO: 408) fully modified with α-thiocytidine (nucleic acid)", "chain": "GGGAAAUAAGAGAGAAAAGAAGAGUAAGAAGAAAUAUAAGAGCCACCAUGGCCGGUCCCGCGACCCAAAGCCCCAUGAAACUUAUGGCCCUGCAGUUGCUGCUUUGGCACUCGGCCCUCUGGACAGUCCAAGAAGCGACUCCUCUCGGACCUGCCUCAUCGUUGCCGCAGUCAUUCCUUUUGAAGUGUCUGGAGCAGGUGCGAAAGAUUCAGGGCGAUGGAGCCGCACUCCAAGAGAAGCUCUGCGCGACAUACAAACUUUGCCAUCCCGAGGAGCUCGUACUGCUCGGGCACAGCUUGGGGAUUCCCUGGGCUCCUCUCUCGUCCUGUCCGUCGCAGGCUUUGCAGUUGGCAGGGUGCCUUUCCCAGCUCCACUCCGGUUUGUUCUUGUAUCAGGGACUGCUGCAAGCCCUUGAGGGAAUCUCGCCAGAAUUGGGCCCGACGCUGGACACGUUGCAGCUCGACGUGGCGGAUUUCGCAACAACCAUCUGGCAGCAGAUGGAGGAACUGGGGAUGGCACCCGCGCUGCAGCCCACGCAGGGGGCAAUGCCGGCCUUUGCGUCCGCGUUUCAGCGCAGGGCGGGUGGAGUCCUCGUAGCGAGCCACCUUCAAUCAUUUUUGGAAGUCUCGUACCGGGUGCUGAGACAUCUUGCGCAGCCGUGAAGCGCUGCCUUCUGCGGGGCUUGCCUUCUGGCCAUGCCCUUCUUCUCUCCCUUGCACCUGUACCUCUUGGUCUUUGAAUAAAGCCUGAGUAGGAAG", "modifications": "α-thiocytidine modified; Description of Artificial Sequence: Synthetic Transcript Sequence"}}, "key": {"[1]": {"system": "human embryonic kidney 293 (HEK293) cells", "assay": "Cytotoxicity of NTPs, CYTO TOX-GLO assay", "assay_type": "cell-based", "settings": "human", "protocol": "The cytotoxicity of natural and modified nucleoside triphosphates (NTPs) alone or in combination with other bases, was analyzed in human embryonic kidney 293 (HEK293) cells in the absence of transfection reagent. […] 10 ul of the NTPs outlined in Table 12 were combined with 10 ul of lipid dilution and incubated for 30 minutes to form a complex before 80 ul of the HEK293 cell suspension was added to the NTP complex.\nNatural and modified NTPs were transfected at a concentration of 2.1 nM, 21 nM, 210 nM, 2.1 um, 21 uM, 210 um or 2.1 mM. NTPs in combination were transfected at a total concentration of NTPs of 8.4 nM, 84 nM, 840 nM, 8.4 uM, 84 uM, 840 uM and 8.4 mM. […] The cytotoxicity of the NTPs and the modified G-CSF mRNA was assayed at 4, 24, 48 and 72 hours post addition to the HEK293 cells using a CYTO TOX-GLO™ assay from Promega (Madison, Wis.) following the manufacturer protocol except pippeting was used for lysing the cells instead of shaking the plates."}, "[2]": {"system": "interferon-alpha (IFN-α)", "assay": "In vitro screening in PBMC: interferon-alpha induction by ELISA", "assay_type": "cell-based, human", "from_the_text": "(§1) The supernatant was harvested and stored frozen until analyzed by ELISA to determine the G-CSF protein expression, and the induction of the cytokines interferon-alpha (IFN-α) and tumor necrosis factor alpha (TNF-α)."}, "[3]": {"system": "tumor necrosis factor alpha (TNF-α)", "assay": "In vitro screening in PBMC: tumor necrosis factor alpha induction by ELISA", "assay_type": "cell-based, human", "from_the_text": "as §1"}, "[4]": {"system": "peripheral blood mononuclear cells (PBMC)", "assay": "In vitro screening in PBMC: G-CSF protein expression by ELISA", "assay_type": "cell-based, human", "from_the_text": "as §1"}, "[5]": {"settings": "PBMC Donor 1, 500 ng G-CSF mRNA"}, "[6]": {"settings": "PBMC Donor 2, 500 ng G-CSF mRNA"}, "[7]": {"settings": "PBMC Donor 3, 500 ng G-CSF mRNA"}}, "data": [{"molecule": "Cn1cc([C@@H]2O[C@H](CO)[C@@H](O)[C@H]2O)c(=O)[nH]c1=O", "note": "[N1-methyl pseudouridine]", "values": [{"measurement": "percent of viable cells", "setting": "[1]; 4 h, 2.1 nM", "value": 91.89, "unit": "%"}, {"measurement": "percent of viable cells", "setting": "[1]; 4 h, 21 nM", "value": 91.44, "unit": "%"}, {"measurement": "percent of viable cells", "setting": "[1]; 4 h, 210 nM", "value": 92.15, "unit": "%"}, {"measurement": "percent of viable cells", "setting": "[1]; 4 h, 2.1 uM", "value": 90.41, "unit": "%"}, {"measurement": "percent of viable cells", "setting": "[1]; 4 h, 21 uM", "value": 91.48, "unit": "%"}, {"measurement": "percent of viable cells", "setting": "[1]; 4 h, 210 uM", "value": 91.43, "unit": "%"}, {"measurement": "percent of viable cells", "setting": "[1]; 4 h, 2.1 mM", "value": 92.45, "unit": "%"}, {"measurement": "percent of viable cells", "setting": "[1]; 24 h, 2.1 nM", "value": 87.79, "unit": "%"}, {"measurement": "percent of viable cells", "setting": "[1]; 24 h, 21 nM", "value": 86.85, "unit": "%"}, {"measurement": "percent of viable cells", "setting": "[1]; 24 h, 210 nM", "value": 85.89, "unit": "%"}, {"measurement": "percent of viable cells", "setting": "[1]; 24 h, 2.1 uM", "value": 85.72, "unit": "%"}, {"measurement": "percent of viable cells", "setting": "[1]; 24 h, 21 uM", "value": 85.17, "unit": "%"}, {"measurement": "percent of viable cells", "setting": "[1]; 24 h, 210 uM", "value": 86.48, "unit": "%"}, {"measurement": "percent of viable cells", "setting": "[1]; 24 h, 2.1 mM", "value": 88.92, "unit": "%"}, {"measurement": "percent of viable cells", "setting": "[1]; 48 h, 2.1 nM", "value": 87.81, "unit": "%"}, {"measurement": "percent of viable cells", "setting": "[1]; 48 h, 21 nM", "value": 86.72, "unit": "%"}, {"measurement": "percent of viable cells", "setting": "[1]; 48 h, 210 nM", "value": 87.38, "unit": "%"}, {"measurement": "percent of viable cells", "setting": "[1]; 48 h, 2.1 uM", "value": 85.85, "unit": "%"}, {"measurement": "percent of viable cells", "setting": "[1]; 48 h, 21 uM", "value": 87.52, "unit": "%"}, {"measurement": "percent of viable cells", "setting": "[1]; 48 h, 210 uM", "value": 86.02, "unit": "%"}, {"measurement": "percent of viable cells", "setting": "[1]; 48 h, 2.1 mM", "value": 89.84, "unit": "%"}, {"measurement": "percent of viable cells", "setting": "[1]; 72 h, 2.1 nM", "value": 92.98, "unit": "%"}, {"measurement": "percent of viable cells", "setting": "[1]; 72 h, 21 nM", "value": 92.84, "unit": "%"}, {"measurement": "percent of viable cells", "setting": "[1]; 72 h, 210 nM", "value": 92.40, "unit": "%"}, {"measurement": "percent of viable cells", "setting": "[1]; 72 h, 2.1 uM", "value": 92.25, "unit": "%"}, {"measurement": "percent of viable cells", "setting": "[1]; 72 h, 21 uM", "value": 93.83, "unit": "%"}, {"measurement": "percent of viable cells", "setting": "[1]; 72 h, 210 uM", "value": 93.03, "unit": "%"}, {"measurement": "percent of viable cells", "setting": "[1]; 72 h, 2.1 mM", "value": 96.80, "unit": "%"}]}, {"molecule": "B1", "values": [{"measurement": "IFN-α Expression", "setting": "[2]; [5]", "value": 100, "unit": "pg/mL"}, {"measurement": "IFN-α Expression", "setting": "[2]; [6]", "value": 75, "unit": "pg/mL"}, {"measurement": "IFN-α Expression", "setting": "[2]; [7]", "value": 143, "unit": "pg/mL"}, {"measurement": "TNF-α Expression", "setting": "[3]; [5]", "value": 67, "unit": "pg/mL"}, {"measurement": "TNF-α Expression", "setting": "[3]; [6]", "value": 100, "unit": "pg/mL"}, {"measurement": "TNF-α Expression", "setting": "[3]; [7]", "value": 133, "unit": "pg/mL"}, {"measurement": "G-CSF Protein Expression", "setting": "[4]; [5]", "value": 5, "unit": "pg/mL"}, {"measurement": "G-CSF Protein Expression", "setting": "[4]; [6]", "value": 168, "unit": "pg/mL"}, {"measurement": "G-CSF Protein Expression", "setting": "[4]; [7]", "value": 164, "unit": "pg/mL"}]}, {"molecule": "B2", "values": [{"measurement": "IFN-α Expression", "setting": "[2]; [5]", "value": "1,138 pg/ml"}, {"measurement": "IFN-α Expression", "setting": "[2]; [6]", "value": 565, "unit": "pg/mL"}, {"measurement": "IFN-α Expression", "setting": "[2]; [7]", "value": 695, "unit": "pg/mL"}, {"measurement": "cytokine induction", "setting": "[2]; PBMC, G-CSF mRNA, result in words", "value": "increase cytokine stimulation"}, {"measurement": "TNF-α Expression", "setting": "[3]; [5]", "value": 300, "unit": "pg/mL"}, {"measurement": "TNF-α Expression", "setting": "[3]; [6]", "value": 273, "unit": "pg/mL"}, {"measurement": "TNF-α Expression", "setting": "[3]; [7]", "value": 277, "unit": "pg/mL"}, {"measurement": "G-CSF Protein Expression", "setting": "[4]; [5]", "value": 105, "unit": "pg/mL"}, {"measurement": "G-CSF Protein Expression", "setting": "[4]; [6]", "value": 264, "unit": "pg/mL"}, {"measurement": "G-CSF Protein Expression", "setting": "[4]; [7]", "value": 245, "unit": "pg/mL"}]}]}
